EC50 data for 29 compounds are collected here from patent US11944622B2 (Annapurna Bio, Inc., priority 2018, dated 2024).

Bounds are passed on as bounds.

This experiment addresses T1, APJ Receptor (Homo sapiens, UniProt P35414).
T1 sequence (P35414 1-380): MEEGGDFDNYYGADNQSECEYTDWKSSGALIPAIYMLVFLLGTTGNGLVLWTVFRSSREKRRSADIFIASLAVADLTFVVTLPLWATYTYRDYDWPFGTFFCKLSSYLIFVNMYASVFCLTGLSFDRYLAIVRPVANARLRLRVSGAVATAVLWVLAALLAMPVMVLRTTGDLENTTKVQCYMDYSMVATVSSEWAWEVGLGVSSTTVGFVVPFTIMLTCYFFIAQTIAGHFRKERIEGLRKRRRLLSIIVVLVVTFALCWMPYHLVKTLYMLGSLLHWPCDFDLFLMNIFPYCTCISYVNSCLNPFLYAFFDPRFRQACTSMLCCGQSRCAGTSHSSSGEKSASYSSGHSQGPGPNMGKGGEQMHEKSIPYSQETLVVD
In words: APJ cAMP assay (DiscoverX enzyme fragment complementation; inhibition of forskolin-stimulated cAMP). As to conditions: CHO-K1 cell line stably expressing the APJ Receptor; EC80 forskolin; 30 minutes at 37° C.; read-out: Potency Range (APJ cAMP EC50). It counts as cell-based. The procedure, abridged: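 CHO-K1 cells stably expressing APJ incubated with compound plus EC80 forskolin for 30 min at 37° C. cAMP detected by β-galactosidase enzyme fragment complementation with chemiluminescent read-out; % activity calculated relative to vehicle and maximal controls.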
Turning to `CCOc1cccc(-c2nc3nnc(NS(=O)(=O)Cc4ncc(O)cn4)cc3n2-c2c(OC)cccc2OC)n1` [Example 129, N-(7-(2,6-Dimethoxyphenyl)-8-(6-ethoxypyridin-2-yl)-7H-imidazo[4,5-c]pyridazinyl)-1-(5-hydroxypyrimidin-2-yl)methanesulfonamide], the EC50 is 1 to 100 nM.
To `CCOc1cccc(-c2nc3nnc(NS(=O)(=O)Cc4ccc(F)cc4)cc3n2-c2c(OC)cccc2OC)n1` [Example 122, N-(7-(2,6-Dimethoxyphenyl)-8-(6-ethoxypyridin-2-yl)-7H-imidazo[4,5-c]pyridazinyl)-1-(4-fluorophenyl)methanesulfonamide] belongs less than 1 nM; to `CCOc1cccc(-c2nc3ccc(NS(C)(=O)=O)nc3n2-c2c(OC)cccc2OC)n1` [Example 63, N-(3-(2,6-dimethoxyphenyl)-2-(6-ethoxypyridin-2-yl)-3H-imidazo[4,5-b]pyridin-5-yl)methanesulfonamide], 1 to 100 nM.
As to `CCOc1cccc(-c2nc3ncc(CCc4ccccc4)nc3n2-c2c(OC)cccc2OC)n1` [Example 7, 1-(2,6-dimethoxyphenyl)-2-(6-ethoxypyridin-2-yl)-6-phenethyl-1H-imidazo[4,5-b]pyrazine], the 50% effective concentration (EC50) lay within 1 to 100 nM.
As for `CCOc1cccc(-c2nc3nc(NS(=O)(=O)CC4(O)CNC4)cnc3n2-c2c(OC)cccc2OC)n1` [Example 93, N-(1-(2,6-Dimethoxyphenyl)-2-(6-ethoxypyridin-2-yl)-1H-imidazo[4,5-b]pyrazin-5-yl)-1-(3-hydroxyazetidin-3-yl)methanesulfonamide], the EC50 was less than 1 nM.
Regarding `CCOc1cccc(-c2nc3ncc(C(=O)NCc4ccccc4)nc3n2-c2c(OC)cccc2OC)n1` [Example 8, N-Benzyl-1-(2,6-dimethoxyphenyl)-2-(6-ethoxypyridin-2-yl)-1H-imidazo[4,5-b]pyrazine-6-carboxamide], the EC50 lay in the range of 100 to 10000 nM.
Then `CCOc1cccc(-c2nc3nc(Cl)c(NS(=O)(=O)C4CC4)nc3n2-c2c(OC)cccc2OC)n1` [Example 97, N-(5-Chloro-1-(2,6-dimethoxyphenyl)-2-(6-ethoxypyridin-2-yl)-1H-imidazo[4,5-b]pyrazin-6-yl)cyclopropanesulfonamide], with 1 to 100 nM; and `CCOc1cccc(-c2nc3ncc(NS(=O)(=O)N(C)C4CC4)nc3n2-c2c(OC)cccc2OC)n1` [Example 77, N-(1-(2,6-dimethoxyphenyl)-2-(6-ethoxypyridin-2-yl)-1H-imidazo[4,5-b]pyrazin-6-yl)-N′-methyl-N′-cyclopropylsulfamide], with less than 1 nM; and `CCOc1cccc(-c2nc3ncc(NS(=O)(=O)Cc4ccc(C)cn4)nc3n2-c2c(OC)cccc2OC)n1` [Example 83, N-(1-(2,6-Dimethoxyphenyl)-2-(6-ethoxypyridin-2-yl)-1H-imidazo[4,5-b]pyrazin-6-yl)-1-(5-methylpyridin-2-yl)methanesulfonamide], with less than 1 nM.
With `CCOc1cccc(-c2nc3ncc(NS(=O)(=O)N4CCC(O)CC4)nc3n2-c2c(OC)cccc2OC)n1` [Example 42, N-(1-(2,6-dimethoxyphenyl)-2-(6-ethoxypyridin-2-yl)-1H-imidazo[4,5-b]pyrazin-6-yl)-4-hydroxypiperidine-1-sulfonamide], the EC50 lay in the range of 1 to 100 nM.
To `CCOc1cccc(-c2nc3ncc(NS(=O)(=O)c4ccccn4)nc3n2-c2c(OC)cccc2OC)n1` [Example 23, N-(1-(2,6-dimethoxyphenyl)-2-(6-ethoxypyridin-2-yl)-1H-imidazo[4,5-b]pyrazin-6-yl)pyridine-2-sulfonamide] belongs less than 1 nM; to `CCOc1cccc(-c2nc3ncc(NS(=O)(=O)Cc4cncnc4)nc3n2-c2c(OC)cccc2OC)n1` [Example 35, N-(1-(2,6-dimethoxyphenyl)-2-(6-ethoxypyridin-2-yl)-1H-imidazo[4,5-b]pyrazin-6-yl)-1-(pyrimidin-5-yl)methanesulfonamide], 1 to 100 nM.
Then `CCOc1cccc(-c2nc3nc(NS(=O)(=O)CC4(O)CC4)cnc3n2-c2c(OC)cccc2OC)n1` [Example 62, N-(1-(2,6-dimethoxyphenyl)-2-(6-ethoxypyridin-2-yl)-1H-imidazo[4,5-b]pyrazin-5-yl)-1-(1-hydroxycyclopropyl)methanesulfonamide], with 1 to 100 nM; and `CCOc1cccc(-c2nc3nc(NS(=O)(=O)N4CCOCC4)cnc3n2-c2c(OC)cccc2OC)n1` [Example 90, N-(1-(2,6-Dimethoxyphenyl)-2-(6-ethoxypyridin-2-yl)-1H-imidazo[4,5-b]pyrazin-5-yl)morpholine-4-sulfonamide], with less than 1 nM.
Then `CCOc1cccc(-c2nc3nnc(NS(=O)(=O)Cc4ccc(F)cn4)cc3n2-c2c(OC)cccc2OC)n1` [Example 125, N-(7-(2,6-Dimethoxyphenyl)-8-(6-ethoxypyridin-2-yl)-7H-imidazo[4,5-c]pyridazinyl)-1-(5-fluoropyridin-2-yl)methanesulfonamide], with less than 1 nM.
Consider `CCOc1cccc(-c2nc3ncc(NS(C)(=O)=O)nc3n2-c2c(OC)cccc2C(F)(F)F)n1` [Example 48, N-(2-(6-ethoxypyridin-2-yl)-1-(2-methoxy-6-(trifluoromethyl)phenyl)-1H-imidazo[4,5-b]pyrazin-6-yl)methanesulfonamide], for which the EC50 lay in the range of 1 to 100 nM.
To `CCOc1cccc(-c2nc3nc(Cl)c(NS(=O)(=O)Cc4ncccn4)nc3n2-c2c(OC)cccc2OC)n1` [Example 109, N-(5-Chloro-1-(2,6-dimethoxyphenyl)-2-(6-ethoxypyridin-2-yl)-1H-imidazo[4,5-b]pyrazin-6-yl)-1-(pyrimidin-2-yl)methanesulfonamide] belongs 1 to 100 nM.
To `CCOc1cccc(-c2nc3ncc(NS(=O)(=O)CCC(C)(C)O)nc3n2-c2c(OC)cccc2OC)n1` [Example 60, N-(1-(2,6-dimethoxyphenyl)-2-(6-ethoxypyridin-2-yl)-1H-imidazo[4,5-b]pyrazin-6-yl)-3-hydroxy-3-methylbutane-1-sulfonamide] belongs 1 to 100 nM.
In the case of `COc1cccc(OC)c1-n1c(-c2cncc(C)c2)nc2ncc(NS(=O)(=O)C3CC3)nc21` [Example 133, N-(1-(2,6-dimethoxyphenyl)-2-(5-methylpyridin-3-yl)-1H-imidazo[4,5-b]pyrazin-6-yl)cyclopropanesulfonamide], the EC50 lay in the range of 100 to 10000 nM.
Turning to `CCOc1cccc(-c2nc3nnc(NS(=O)(=O)C4CC4)cc3n2-c2c(OC)cccc2OC)n1` [Example 119, N-(7-(2,6-Dimethoxyphenyl)-8-(6-ethoxypyridin-2-yl)-7H-imidazo[4,5-c]pyridazinyl)cyclopropanesulfonamide], the EC50 was 1 to 100 nM.
Then `CCOc1cccc(-c2nc3ncc(NS(=O)(=O)N4CCCC4)nc3n2-c2c(OC)cccc2OC)n1` [Example 73, N-(1-(2,6-dimethoxyphenyl)-2-(6-ethoxypyridin-2-yl)-1H-imidazo[4,5-b]pyrazin-6-yl)pyrrolidine-1-sulfonamide], with 1 to 100 nM.
Take `CCOc1cccc(-c2nc3nc(Cl)c(NS(=O)(=O)c4ccc(C)cn4)nc3n2-c2c(OC)cccc2OC)n1` [Example 101, N-(5-Chloro-1-(2,6-dimethoxyphenyl)-2-(6-ethoxypyridin-2-yl)-1H-imidazo[4,5-b]pyrazin-6-yl)-5-methylpyridine-2-sulfonamide]: the concentration for a half-maximal effect (EC50) is less than 1 nM.
Then `CCOc1cccc(-c2nc3ncc(NS(=O)(=O)[C@H]4CC[C@@H](O)CC4)nc3n2-c2c(OC)cccc2OC)n1` [Example 40, cis-N-(1-(2,6-dimethoxyphenyl)-2-(6-ethoxypyridin-2-yl)-1H-imidazo[4,5-b]pyrazin-6-yl)-4-hydroxycyclohexane-1-sulfonamide], with 1 to 100 nM; and `CCOc1cccc(-c2nc3nc(Cl)c(NS(=O)(=O)Cc4ccc(F)cc4)nc3n2-c2c(OC)cccc2OC)n1` [Example 108, N-(5-Chloro-1-(2,6-dimethoxyphenyl)-2-(6-ethoxypyridin-2-yl)-1H-imidazo[4,5-b]pyrazin-6-yl)-1-(4-fluorophenyl)methanesulfonamide], with less than 1 nM.
Then `CCOc1cccc(-c2nc3nnc(NS(=O)(=O)c4ccc(F)cn4)cc3n2-c2c(OC)cccc2OC)n1` [Example 120, N-(7-(2,6-Dimethoxyphenyl)-8-(6-ethoxypyridin-2-yl)-7H-imidazo[4,5-c]pyridazinyl)-5-fluoropyridine-2-sulfonamide], with less than 1 nM; and `CCOc1cccc(-c2nc3nc(Cl)c(NS(=O)(=O)c4ccccn4)nc3n2-c2c(OC)cccc2OC)n1` [Example 102, N-(5-Chloro-1-(2,6-dimethoxyphenyl)-2-(6-ethoxypyridin-2-yl)-1H-imidazo[4,5-b]pyrazin-6-yl)pyridine-2-sulfonamide], with 1 to 100 nM.
Then `CCOc1cccc(-c2nc3ncc(NS(=O)(=O)Cc4ccc(F)cn4)nc3n2-c2c(OC)cccc2OC)n1` [Example 78, N-(1-(2,6-dimethoxyphenyl)-2-(6-ethoxypyridin-2-yl)-1H-imidazo[4,5-b]pyrazin-6-yl)-1-(5-fluoropyridin-2-yl)methanesulfonamide], with less than 1 nM; and `CCOc1cccc(-c2nc3nc(Cl)c(NS(=O)(=O)Cc4ncc(F)cn4)nc3n2-c2c(OC)cccc2OC)n1` [Example 105, N-(5-Chloro-1-(2,6-dimethoxyphenyl)-2-(6-ethoxypyridin-2-yl)-1H-imidazo[4,5-b]pyrazin-6-yl)-1-(5-fluoropyrimidin-2-yl)methanesulfonamide], with less than 1 nM.
`CCOc1cccc(-c2nc3ncc(NS(C)(=O)=O)nc3n2-c2c(F)cccc2OC)n1` [Example 50]: the concentration giving a half-maximal response (EC50) was in the range of 1 to 100 nM.

As a reminder, the EC50 is the midpoint of the concentration-response curve.
